Test results published in the supplement of paper PMC13207355.

Key:
Conditions in all cases: exposure time: 72 h
E21 [1] = patient-derived glioblastoma stem cells of mesenchymal subtype; assay: surviving fraction (nuclei count normalised to DMSO); higher = more cells surviving (less toxic)
E34 [2] = patient-derived glioblastoma stem cells of proneural subtype; assay: as above
E28 [3] = patient-derived glioblastoma stem cells of classical subtype; assay: as above
E57 [4] = patient-derived glioblastoma stem cells of mesenchymal subtype; assay: as above
E31 [5] = patient-derived glioblastoma stem cells of proneural subtype; assay: as above
E13 [6] = patient-derived glioblastoma stem cells of classical subtype; assay: as above
FT3469 [7] = normal neural stem cell line; assay: as above
E21 [8] = assay: phenotypic distance (Euclidean, principal components) from DMSO controls (arbitrary units); higher = stronger morphological change
E34 [9] = assay: as above
E28 [10] = assay: as above
E57 [11] = assay: as above
E31 [12] = assay: as above
E13 [13] = assay: as above
FT3469 [14] = assay: as above
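Wherever phenotypic distance (Euclidean, principal components) from DMSO controls is given: cell Painting imaging in 384-well plates, CellProfiler features reduced to at least 20 principal components, Euclidean distance versus same-plate DMSO vehicle wells (0.1% v/v), median over six images per well.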
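Wherever surviving fraction (nuclei count normalised to DMSO) is given: nuclei counted by high-content imaging of Hoechst-stained cells in laminin-coated 384-well plates, relative to 0.1% DMSO vehicle wells, with staurosporine as cell-death control.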

C#C[C@]1(O)CC[C@H]2[C@@H]3CCc4cc(OC5CCCC5)ccc4[C@H]3CC[C@@]21C [Quinestrol]
Conditions | phenotypic distance | surviving fraction
E13 [6], 4.1 nM | – | 1.06
E13 [6], 12.3 nM | – | 1.04
E13 [6], 37 nM | – | 1.11
E13 [6], 111.1 nM | – | 1.07
E13 [6], 333.3 nM | – | 1.02
E13 [6], 1000 nM | – | 0.946
E13 [6], 3000 nM | – | 0.347
E13 [13], 4.1 nM | 0.478 | –
E13 [13], 12.3 nM | 0.526 | –
E13 [13], 37 nM | 0.837 | –
E13 [13], 111.1 nM | 0.697 | –
E13 [13], 333.3 nM | 0.689 | –
E13 [13], 1000 nM | 1.18 | –
E13 [13], 3000 nM | 7.05 | –
E21 [1], 4.1 nM | – | 1.01
E21 [1], 12.3 nM | – | 0.938
E21 [1], 37 nM | – | 1.05
E21 [1], 111.1 nM | – | 0.982
E21 [1], 333.3 nM | – | 1.02
E21 [1], 1000 nM | – | 0.873
E21 [1], 3000 nM | – | 0.617
E21 [8], 4.1 nM | 0.608 | –
E21 [8], 12.3 nM | 0.48 | –
E21 [8], 37 nM | 0.746 | –
E21 [8], 111.1 nM | 0.53 | –
E21 [8], 333.3 nM | 0.819 | –
E21 [8], 1000 nM | 2.32 | –
E21 [8], 3000 nM | 6.37 | –
E28 [3], 4.1 nM | – | 1.13
E28 [3], 12.3 nM | – | 1.04
E28 [3], 37 nM | – | 1.08
E28 [3], 111.1 nM | – | 1.1
E28 [3], 333.3 nM | – | 1.04
E28 [3], 1000 nM | – | 1.19
E28 [3], 3000 nM | – | 1.01
E28 [10], 4.1 nM | 0.438 | –
E28 [10], 12.3 nM | 2.42 | –
E28 [10], 37 nM | 0.788 | –
E28 [10], 111.1 nM | 0.466 | –
E28 [10], 333.3 nM | 0.753 | –
E28 [10], 1000 nM | 0.514 | –
E28 [10], 3000 nM | 0.675 | –
E31 [5], 4.1 nM | – | 1.02
E31 [5], 12.3 nM | – | 0.942
E31 [5], 37 nM | – | 1.09
E31 [5], 111.1 nM | – | 1.07
E31 [5], 333.3 nM | – | 0.981
E31 [5], 1000 nM | – | 1.01
E31 [5], 3000 nM | – | 0.848
E31 [12], 4.1 nM | 0.447 | –
E31 [12], 12.3 nM | 0.67 | –
E31 [12], 37 nM | 1.03 | –
E31 [12], 111.1 nM | 0.71 | –
E31 [12], 333.3 nM | 0.698 | –
E31 [12], 1000 nM | 0.864 | –
E31 [12], 3000 nM | 3.81 | –
E34 [2], 4.1 nM | – | 1.01
E34 [2], 12.3 nM | – | 1.07
E34 [2], 37 nM | – | 1.01
E34 [2], 111.1 nM | – | 1.07
E34 [2], 333.3 nM | – | 1.15
E34 [2], 1000 nM | – | 0.967
E34 [2], 3000 nM | – | 0.918
E34 [9], 4.1 nM | 0.544 | –
E34 [9], 12.3 nM | 0.554 | –
E34 [9], 37 nM | 0.597 | –
E34 [9], 111.1 nM | 0.985 | –
E34 [9], 333.3 nM | 1.09 | –
E34 [9], 1000 nM | 0.707 | –
E34 [9], 3000 nM | 1.82 | –
E57 [4], 4.1 nM | – | 1.05
E57 [4], 12.3 nM | – | 1.05
E57 [4], 37 nM | – | 1.01
E57 [4], 111.1 nM | – | 1.06
E57 [4], 333.3 nM | – | 1.01
E57 [4], 1000 nM | – | 1.03
E57 [4], 3000 nM | – | 0.693
E57 [11], 4.1 nM | 1.71 | –
E57 [11], 12.3 nM | 1.01 | –
E57 [11], 37 nM | 0.583 | –
E57 [11], 111.1 nM | 0.81 | –
E57 [11], 333.3 nM | 0.452 | –
E57 [11], 1000 nM | 0.7 | –
E57 [11], 3000 nM | 3.72 | –
FT3469 [7], 4.1 nM | – | 0.963
FT3469 [7], 12.3 nM | – | 1.03
FT3469 [7], 37 nM | – | 1.11
FT3469 [7], 111.1 nM | – | 1.09
FT3469 [7], 333.3 nM | – | 1.2
FT3469 [7], 1000 nM | – | 0.888
FT3469 [7], 3000 nM | – | 0.938
FT3469 [14], 4.1 nM | 0.479 | –
FT3469 [14], 12.3 nM | 0.739 | –
FT3469 [14], 37 nM | 0.643 | –
FT3469 [14], 111.1 nM | 1.01 | –
FT3469 [14], 333.3 nM | 0.84 | –
FT3469 [14], 1000 nM | 0.699 | –
FT3469 [14], 3000 nM | 1.58 | –

COc1cc(N)c(Cl)cc1C(=O)NC1CCN(CCCOc2ccc(F)cc2)CC1OC (stereo unspecified) [Cisapride]
Conditions | phenotypic distance | surviving fraction
E13 [6], 4.1 nM | – | 1.06
E13 [6], 12.3 nM | – | 0.908
E13 [6], 37 nM | – | 0.927
E13 [6], 111.1 nM | – | 1
E13 [6], 333.3 nM | – | 0.996
E13 [6], 1000 nM | – | 0.958
E13 [6], 3000 nM | – | 0.907
E13 [13], 4.1 nM | 0.873 | –
E13 [13], 12.3 nM | 0.288 | –
E13 [13], 37 nM | 0.382 | –
E13 [13], 111.1 nM | 0.383 | –
E13 [13], 333.3 nM | 0.399 | –
E13 [13], 1000 nM | 0.304 | –
E13 [13], 3000 nM | 0.549 | –
E21 [1], 4.1 nM | – | 1.04
E21 [1], 12.3 nM | – | 1.03
E21 [1], 37 nM | – | 0.956
E21 [1], 111.1 nM | – | 1.08
E21 [1], 333.3 nM | – | 0.888
E21 [1], 1000 nM | – | 0.863
E21 [1], 3000 nM | – | 0.846
E21 [8], 4.1 nM | 0.524 | –
E21 [8], 12.3 nM | 0.638 | –
E21 [8], 37 nM | 0.752 | –
E21 [8], 111.1 nM | 0.754 | –
E21 [8], 333.3 nM | 0.818 | –
E21 [8], 1000 nM | 0.872 | –
E21 [8], 3000 nM | 1.14 | –
E28 [3], 4.1 nM | – | 1.05
E28 [3], 12.3 nM | – | 1.04
E28 [3], 37 nM | – | 1.14
E28 [3], 111.1 nM | – | 0.921
E28 [3], 333.3 nM | – | 1.09
E28 [3], 1000 nM | – | 0.963
E28 [3], 3000 nM | – | 0.844
E28 [10], 4.1 nM | 0.867 | –
E28 [10], 12.3 nM | 0.592 | –
E28 [10], 37 nM | 0.923 | –
E28 [10], 111.1 nM | 0.547 | –
E28 [10], 333.3 nM | 1.1 | –
E28 [10], 1000 nM | 0.901 | –
E28 [10], 3000 nM | 1.01 | –
E31 [5], 4.1 nM | – | 1.04
E31 [5], 12.3 nM | – | 1.01
E31 [5], 37 nM | – | 0.895
E31 [5], 111.1 nM | – | 1
E31 [5], 333.3 nM | – | 1.01
E31 [5], 1000 nM | – | 0.972
E31 [5], 3000 nM | – | 0.67
E31 [12], 4.1 nM | 0.443 | –
E31 [12], 12.3 nM | 0.553 | –
E31 [12], 37 nM | 0.533 | –
E31 [12], 111.1 nM | 0.657 | –
E31 [12], 333.3 nM | 0.557 | –
E31 [12], 1000 nM | 0.668 | –
E31 [12], 3000 nM | 0.804 | –
E34 [2], 4.1 nM | – | 1.06
E34 [2], 12.3 nM | – | 1.13
E34 [2], 37 nM | – | 0.945
E34 [2], 111.1 nM | – | 0.906
E34 [2], 333.3 nM | – | 1.02
E34 [2], 1000 nM | – | 0.971
E34 [2], 3000 nM | – | 1.06
E34 [9], 4.1 nM | 0.74 | –
E34 [9], 12.3 nM | 0.611 | –
E34 [9], 37 nM | 0.666 | –
E34 [9], 111.1 nM | 0.904 | –
E34 [9], 333.3 nM | 0.986 | –
E34 [9], 1000 nM | 0.415 | –
E34 [9], 3000 nM | 0.914 | –
E57 [4], 4.1 nM | – | 0.957
E57 [4], 12.3 nM | – | 0.903
E57 [4], 37 nM | – | 1.05
E57 [4], 111.1 nM | – | 1.07
E57 [4], 333.3 nM | – | 0.967
E57 [4], 1000 nM | – | 1.04
E57 [4], 3000 nM | – | 0.918
E57 [11], 4.1 nM | 0.385 | –
E57 [11], 12.3 nM | 0.606 | –
E57 [11], 37 nM | 0.667 | –
E57 [11], 111.1 nM | 0.47 | –
E57 [11], 333.3 nM | 0.668 | –
E57 [11], 1000 nM | 0.946 | –
E57 [11], 3000 nM | 0.645 | –
FT3469 [7], 4.1 nM | – | 0.931
FT3469 [7], 12.3 nM | – | 1.1
FT3469 [7], 37 nM | – | 0.992
FT3469 [7], 111.1 nM | – | 1.06
FT3469 [7], 333.3 nM | – | 0.891
FT3469 [7], 1000 nM | – | 1.2
FT3469 [7], 3000 nM | – | 0.907
FT3469 [14], 4.1 nM | 1.16 | –
FT3469 [14], 12.3 nM | 0.775 | –
FT3469 [14], 37 nM | 1.12 | –
FT3469 [14], 111.1 nM | 2.83 | –
FT3469 [14], 333.3 nM | 0.576 | –
FT3469 [14], 1000 nM | 1.05 | –
FT3469 [14], 3000 nM | 0.797 | –
